The values that follow come from patent US5618675A, “Methods and compositions for detecting lipopolysaccharides using CAP18 fragments” (Panorama Research, Inc., dated 1997).

Some results are limits rather than exact numbers.

One experiment concerns the target T1, factor X (Homo sapiens, UniProt P00742).
T1 construct: purchased Sigma Chemical Co., St. Louis, Mo
Nature of the experiment: Factor X activation by tissue factor and factor VII, synthetic substrate S-2222. It is filed as biochemical. The settings on record: FIG. 16B. The text has this:
Clotting method: Human plasma (Ortho plasma control, Ortho Diagnostic Co.). ATPP reagent (Organotechnika, Tokyo, Japan). Standard tissue factor, rabbit brain thromboplastin (Simplastin, ONO Pharmaceutical, Tokyo, Japan). Purified human factor VII, factor X, factor Xa (Sigma Chemical Co., St. Louis, Mo.). Russell Viper venom (RVV) and Echis carinatus venom (ECV, Sigma Co.).
(§1) Synthetic chromogenic substrate method: Substrate for factor Xa, S2222 (Kabi, Bz-Ile-Glu-Arg-pNA) was used. Substrate for factor II (prothrombin), Boc-Val-Pro-Arg-pNA (Sigma Chemical Co.) was used.
A reaction mixture of factor VII (1 unit/ml, 200 μl), factor X (1 unit/ml, 200 μl), tissue factor (2.5 mg/ml, 50 μl), 25 mM-CaCl2(50 μl) and 50 μl of several concentration of peptide was incubated at 37° C. for 10 min. To 200 μl of the reaction mixture, 60 μl of 4 mM S-2222, a synthetic substrate for factor Xa, and 340 μl of Tris-HCl buffer, pH 8.2, was added and further incubated for 15 min. The reaction was stopped by adding 60 μl of 50% acetic acid, and OD for p-nitroaniline was read at 405 nm.

In the next experiment the test system is E. coli 055:B5 LPS. Description: Inhibition of RNIP-mediated hemagglutination by LPS. It is filed as binding. The settings on record: #36-1 at 16 μg/ml, RNIP (#197) at 25 μg/ml preincubated with LPS 30 minutes. As to the method:
(§2) For hemagglutination assays, erythrocytes were sensitized with LPS as follows. One ml of 1% erythrocyte suspension (human 0 type, C3H/HeN mouse or sheep) was mixed with 0.2 ml of LPS solution and incubated at 37° C. for 30 min, followed by washing with phosphate buffered saline (PBS), and then the concentration of suspension was adjusted to 1.0%. In the case of S-LPS, the solution was heated at 100° C. for 1 hour before sensitization of erythrocytes. […] Activity of CAP was expressed as a minimum agglutinating concentration (MAC) of CAP. According to the method of Kirikae et al. (1986) Microbiol. Immunol. 30:269-274, 50 μl of 2-fold serial dilution of Re-LPS was added to 50 μl of 1.0% rabbit erythrocyte suspension, and incubated at 37° C. for 3, hour. Minimum agglutinating concentration of Re-LPS was expressed as 1 HA unit.
(§3) Another series of experiments was performed to determine if the #36-1 and #197 (RNIP) peptides were capable of binding to LPS from various species of Gram-negative bacteria. For these experiments, sheep red blood cells were sensitized with Salmonella minnesota Re-LPS. Peptides #36-1 and #197 (RNIP) were preincubated with various preparations of LPS. Both peptides bind to a diverse group of lipopolysaccharides.
(§4) °Peptide #361 (16 μg/ml) and RNIP (#197) (25 μg/ml) were
(§5) preincubated with each LPS preparation at 370 for 30 minutes, and each
(§6) reaction mixture was added to sheep erythrocytes sensitized with RELPS.

Experiment [1] has as its system Salmonella minnesota R595 LPS. The description is as above. The class given is binding. The settings on record: #36-1 at 16 μg/ml, RNIP (#197) at 25 μg/ml preincubated with LPS 30 minutes. As to the method: as §2, §3, §4, §5, §6
Experiment [2] deals with Klebsiella pneumoniae LPS. The description is as above. It is filed as binding. The settings on record: #36-1 at 16 μg/ml, RNIP (#197) at 25 μg/ml preincubated with LPS 30 minutes. As to the method:
as §2, §3, §4, §5, §6

In another experiment the test system is E. coli 0127:B8 LPS. Described as above. The class given is binding. The settings on record: #36-1 at 16 μg/ml, RNIP (#197) at 25 μg/ml preincubated with LPS 30 minutes. How it is done:
as §2, §3, §4, §5, §6

Experiment [3] concerns Pseudomonas aeruginosa F-D Type I LPS. The experiment is described as above. It is filed as binding. The settings on record: #36-1 at 16 μg/ml, RNIP (#197) at 25 μg/ml preincubated with LPS 30 minutes. As to the method:
as §2, §3, §4, §5, §6

Another experiment deals with E. coli J5 LPS. Described as above. The class given is binding. The settings on record: #36-1 at 16 μg/ml, RNIP (#197) at 25 μg/ml preincubated with LPS 30 minutes. How it is done:
as §2, §3, §4, §5, §6

The test system of the next experiment is E. coli 0111:B4 LPS. Described as above. The class given is binding. The settings on record: #36-1 at 16 μg/ml, RNIP (#197) at 25 μg/ml preincubated with LPS 30 minutes. How it is done: as §2, §3, §4, §5, §6
For another experiment, the system named is Klebsiella pneumoniae. Description: Antibacterial CFU assay.
Experiment [4] concerns two strains of Mycobacterium avium. Description: Antimicrobial activity. The class given is cell-based. The settings on record: range 0-20 μg/ml.
For the next experiment, the target named is prothrombin (factor II) (Homo sapiens, UniProt P00734). Nature of the experiment: Prothrombin activation by Echis carinatus venom (ECV). It is filed as biochemical. The settings on record: FIG. 17A. As to the method: as §1
A reaction mixture of prothrombin (factor II) (0.1 unit/ml, 200 μl), ECV (1 unit/ml, 200 μl), various concentration of peptide (70 μl), 50 μl of 25 mM-CaCl2 and 180 μl of Tris buffer was incubated at 37° C. for 10 min. To 300 μl of the reaction mixture, 60 μl of 4mM-thrombin substrate and 240 μl of buffer was added and further incubated for 15 min.

The subject of another experiment is Salmonella typhimurium. Description: Antibacterial CFU assay. The settings on record: read-out: anti-bacterial IC50 (CFU); FIG. 6D.
A further experiment concerns E. coli. Nature of the experiment: Antibacterial CFU assay. The settings on record: read-out: IC50, inhibition of CFU; FIG. 6I.
The test system of another experiment is human monocytes. Nature of the experiment: TNF release from LPS and IFNγ stimulated monocytes. It is filed as cell-based.
In experiment [5] the test system is E. coli 09:K39 K^+ strain. Description: Antibacterial CFU assay. The settings on record: FIG. 6H.
Experiment [6] has as its system E. coli 09:K39 K^- strain. Description: Antibacterial CFU assay. The settings on record: FIG. 6H.

T1 sequence (P00742 41-179 limits assumed): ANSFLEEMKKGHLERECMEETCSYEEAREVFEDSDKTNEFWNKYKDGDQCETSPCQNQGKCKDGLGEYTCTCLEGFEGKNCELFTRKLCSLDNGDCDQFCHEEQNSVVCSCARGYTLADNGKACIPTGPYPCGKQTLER
T1 sequence (P00742 183-488 limits assumed): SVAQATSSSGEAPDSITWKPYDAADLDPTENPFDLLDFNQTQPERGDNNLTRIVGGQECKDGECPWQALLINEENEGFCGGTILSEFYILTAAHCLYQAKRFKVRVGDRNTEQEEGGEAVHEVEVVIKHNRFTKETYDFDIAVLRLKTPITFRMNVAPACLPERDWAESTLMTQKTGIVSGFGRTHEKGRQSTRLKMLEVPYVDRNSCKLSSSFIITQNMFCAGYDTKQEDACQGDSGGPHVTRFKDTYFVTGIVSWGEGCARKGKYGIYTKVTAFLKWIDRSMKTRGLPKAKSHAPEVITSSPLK

For the substance “36-1: synthetic rabbit RNIP-derived fragment, amino acids 135-166 of SEQ ID NO:4 (GLRKRLRKFRNKIKEKLKKIGQKIQGLLPKLA)”, the “IC50, factor X activated by tissue factor and purified factor VII” value in the experiment with factor X lay in the range of 0.6 to 0.7 µg/mL. In addition, the “MIC (minimal inhibitory concentration of LPS)” value with E. coli 055:B5 LPS was determined as 15.6 µg/mL; in experiment [1], 15.6 µg/mL; in [2] it was 31.3 µg/mL; with E. coli 0127:B8 LPS it was 15.6 µg/mL; in experiment [3] it was 3.9 µg/mL; against E. coli J5 LPS, 7.8 µg/mL. Further, the “MIC (minimal inhibitory concentration of LPS)” value in the experiment on E. coli 0111:B4 LPS turned out to be 15.6 µg/mL. Besides, in the experiment with Klebsiella pneumoniae, the “anti-bacterial IC50 (CFU)” value was less than 0.54 µg/mL. In addition, the “activity versus two strains of Mycobacterium avium” value in [4] was “inactive”. Also, the “inhibition of Echis carinatus venom activation of purified factor II to IIa” value with prothrombin (factor II) is on record as “inhibited”. In the experiment with Salmonella typhimurium, the concentration for half-maximal inhibition (IC50) lay within 220 to 280 nM.
With “RNIP: reactive nitrogen inhibitory protein, amino acids 135-171 of SEQ ID NO:4 (rabbit CAP18 C-terminus); purified from granulocytes or synthetic (#197) (GLRKRLRKFRNKIKEKLKKIGQKIQGLLPKLAPRTDY)”, in the experiment with factor X, the “IC50, factor X activated by tissue factor and purified factor VII” value lay in the range of 0.3 to 0.6 µg/mL. For the same substance, the concentration for half-maximal inhibition (IC50) was 40 to 100 nM in the experiment with factor X (read-out: IC50, factor X activated by tissue factor and purified factor VII); less than 70 nM with Klebsiella pneumoniae (read-out: anti-bacterial IC50 (CFU)); 80 nM in the experiment with E. coli; 1500 nM with prothrombin (factor II) (read-out: IC50, Echis carinatus venom activation of factor II to IIa); 20 nM in experiment [5] (read-out: anti-bacterial IC50); 220 to 280 nM in the experiment with Salmonella typhimurium. Further, the IC50 in experiment [6] (read-out: anti-bacterial IC50) was determined as 110 nM. Also, the “MIC (minimal inhibitory concentration of LPS)” value against E. coli 055:B5 LPS was 62.5 µg/mL; in [1], 62.5 µg/mL; in experiment [2], 62.5 µg/mL; in the experiment with E. coli 0127:B8 LPS, 62.5 µg/mL; in [3], 15.6 µg/mL; in the experiment with E. coli J5 LPS it was 15.6 µg/mL. Also, the “MIC (minimal inhibitory concentration of LPS)” value in the experiment on E. coli 0111:B4 LPS worked out at 31.3 µg/mL. Further, in the experiment on Klebsiella pneumoniae, the “anti-bacterial IC50 (CFU)” value is less than 0.44 µg/mL. The “activity versus two strains of Mycobacterium avium” value in experiment [4] was “inactive”. Moreover, in the experiment with prothrombin (factor II), the “IC50, Echis carinatus venom activation of factor II to IIa” value was 9.4 µg/mL. In addition, the “inhibition of Echis carinatus venom activation of purified factor II to IIa” value with prothrombin (factor II) is recorded as “inhibited”. Also, the TNF was determined as 0.27 ng/mL with human monocytes (Human IFNγ (100 U), (1:1), stimulus alone 2.0); 0.35 ng/mL in the experiment on human monocytes (Human IFNγ (100 U), (1:10), stimulus alone 2.0); 0.35 ng/mL with human monocytes (Human IFNγ (100 U), (1:100), stimulus alone 2.0); 0.12 ng/mL with human monocytes (LPS (10 ng/ml), (1:1), stimulus alone 1.0); 0.34 ng/mL in the experiment on human monocytes (LPS (10 ng/ml), (1:10), stimulus alone 1.0); 0.23 ng/mL with human monocytes (LPS (10 ng/ml), (1:100), stimulus alone 1.0). For the same substance, the “anti-bacterial IC50” value came out at 0.14 µg/mL in experiment [5] and 0.68 µg/mL in [6].
